Square brackets hold non-standard residues; d marks the D form. Peptide text beside a SMILES is read from it. Arg(Me) = CNC(=N)NCCC[C@H](N)C(=O)O; d3Pal = N[C@H](Cc1cccnc1)C(=O)O; d4Pal = N[C@H](Cc1ccncc1)C(=O)O; azaGly = NNC(=O)O

The assay has as its system Colon organoid. It is filed as functional, Homo sapiens.
As to `CN1CCN(Cc2ccc(Nc3ncc(Cl)c(Nc4ccccc4S(=O)(=O)N(C)C)n3)cc2)CC1` [DUBERMATINIB], the “Cell Viability Ratio” value was found to be 0.1542.
With `C[C@H](NC(=O)Nc1cc2[nH]ncc2c(CO)n1)c1ccccn1` [ERKi-NC] the figure was 1.034.
With `CN(C(=O)c1ccccc1)c1cc(N(C)c2ccc3c(c2)CCc2ccc(C(=O)NCCN4CCOCC4)cc2C3=O)ccc1F` [FM-743] the figure was 0.9975; with `O=C(NCCN1CCOCC1)c1ccc2c(c1)C(=O)c1ccc(Nc3ccc(F)c(NC(=O)c4ccccc4)c3)cc1CC2` [FS-694], 0.8259.
With `CC(C)(C)OC(=O)N1CCCC1CNC1CCC(c2cc(F)ccc2F)(S(=O)(=O)c2ccc(Cl)cc2)CC1` (stereo not drawn) [GSI-NC] the figure was 0.9423; with `CC(=O)Nc1c(F)cc(C(=O)N[C@H]2CC[C@H](O)CC2)cc1O[C@@H](C)c1ccccc1` [GSK046], 0.8182.
As to `CNC(=O)c1cc(C(=O)NC2CC2)cn(Cc2ccccc2)c1=O` [GSK620], the “Cell Viability Ratio” value amounted to 0.8825.
With `O=C(O)c1ccc(-c2c[nH]c3ncc(-c4ccccc4)cc23)cc1C1CCCC1` [GSK-650394] the figure was 1.062; with `Cc1c(Oc2ccc(F)cc2)c(OC(C)C)nn1-c1ccc(C2CC2)cn1` [IPP/CNRS-A019], 1.225.
With `CNC(=N)NCCC[C@H](NC(=O)[C@H](CC(C)C)NC(=O)NNC(=O)[C@H](Cc1ccccc1)NC(=O)[C@H](CO)NC(=O)[C@H](CC(N)=O)NC(=O)[C@@H](Cc1ccncc1)NC(=O)[C@H](N)Cc1ccc(O)cc1)C(=O)N[C@@H](Cc1ccccc1)C(N)=O` [KISS1-305] (H-[dY][d4Pal]NSF[azaGly]L[Arg(Me)]F-NH2) the figure was 1.123; with `CNC(=N)NCCC[C@H](NC(=O)[C@H](CC(C)C)NC(=O)NNC(=O)[C@H](Cc1ccccc1)NC(=O)[C@H](CO)NC(=O)[C@H](CC(N)=O)NC(=O)[C@@H](Cc1cccnc1)NC(=O)[C@H](N)Cc1ccc(O)cc1)C(=O)NCC(N)=O` [KISS1-543] (H-[dY][d3Pal]NSF[azaGly]L[Arg(Me)]G-NH2), 1.03.
With `C[C@@H]1CN(c2cc(-c3nn(C)c4ccc(OC5(C)CC5)cc34)ncn2)C[C@H](C)O1` [MLi-2-NC] the figure was 1.036; with `CC(=O)c1c(NS(C)(=O)=O)c2cc(-c3ccc(Cl)cc3)c(-c3ccc(Cl)cc3Cl)nc2n(C)c1=O` [MRL-CB1-NC], 1.02; with `Cc1ccc(-c2cnc([C@@]3(O)CC[C@H](C(=O)O)C(C)(C)C3)s2)cc1Nc1cccc(C(F)(F)F)n1` [MRL-SYKi-NC], 1.002.
Regarding `Cc1cc(Nc2nccc(C)n2)cc(-c2cnc([C@@]3(O)CC[C@H](C(=O)O)C(C)(C)C3)s2)c1` [MRL-SYKi], the “Cell Viability Ratio” value is on record as 0.8949.
With `FC(F)(F)c1ccc2c(c1)nc(-c1cccnc1)n2C1CC1` [MSD-CYP11B2-Negative-control] the figure was 1.22.
With `CC(C)(O)c1cncc(-c2nc3ccc(F)cc3n2C2CC2)c1` [MSD-CYP11B2] the figure was 0.9895; with `N#CC1(c2ccccn2)CCN(Cc2cc(C(=O)N3CCCC3)c(=O)n3ccccc23)CC1` [MSD-M1PAM-NC], 1.068.
With `CO[C@@H](C)c1c(Nc2ccc([C@@H](N(C)C(=O)C3CCS(=O)(=O)CC3)C(F)(F)F)cc2)cnc2cc(Cl)nn12` [NVS-MALT1-C] the figure was 1.209; with `CO[C@@H](C)c1c(Nc2ccc([C@H](N(C)C(=O)C3CCS(=O)(=O)CC3)C(F)(F)F)cc2)cnc2cc(Cl)nn12` [NVS-MALT1], 0.853; with `Nc1nc(NCc2ccccc2)nc(-c2ccccc2CO)n1` [Ogerin], 1.099.
With `CN(c1ccnc(CNc2nc(Nc3ccc4c(c3)CC(=O)N4)ncc2C(F)(F)F)n1)S(C)(=O)=O` [PF-00911705], the “Cell Viability Ratio” value worked out at 1.1264.
Turning to `CC(=O)NCC(=O)N1[C@@H]2CC[C@H]1c1ccc(Nc3ncc(C(F)(F)F)c(NC4CCC4)n3)cc12` [PF-03814735], the “Cell Viability Ratio” value worked out at 0.4683.
As to `COc1ccc2cc(OCC3(C(=O)O)CN(C(=O)c4ccc(F)cc4)C3)ccc2c1` [PF-04418948], the “Cell Viability Ratio” value was 1.076.
With `O=C(c1ccc(F)cc1)N1CC(COc2ccc(Br)cc2)(C(=O)O)C1` [PF-04475866] the figure was 0.9754; with `C[C@H](c1ccc(F)cc1)N(Cc1ccc(Cl)c(C(=O)O)c1)C(=O)c1cnc2ccccc2c1` [PF-05257137], 1.055; with `Cn1cnc2c(F)c(Nc3ccc(Br)cc3Cl)c(C(=O)NOCCO)cc21` [SELUMETINIB], 1.4315.
With `O=C1c2ccc(Nc3ccc(F)cc3F)cc2CCc2ccc(OC[C@H](O)CO)cc21` [Skepinone-L] the figure was 1.035; with `CN1CCN(C(=O)C(C)(C)c2ccc(C(=O)Nc3cn4cc(-c5cc(C(C)(C)C)cc(C(C)(C)C)c5)ccc4n3)cc2)CC1` [T3-CLK-N], 0.9471.
With `COc1cccc(CNC(=O)c2nc3scc(CN(C)Cc4ccccc4)c3c(=O)[nH]2)c1` [T-26f] the figure was 1.048.
For the compound `CC(C)CC(=O)N1CCc2nc(-c3ccc(Br)cc3)nc(N(C)Cc3ccccc3)c2C1` [THPP-1-NC], the “Cell Viability Ratio” value is 1.2658.
With `COCCOc1nc(-c2ccc(Cl)nc2)nc2c1CN(C(=O)c1ncn3ccccc13)CC2` [THPP-1] the figure was 1.038; with `Cc1cnc(-c2cc(Cl)ccc2F)cc1-n1c(=O)n(CC(N)=O)c2cnccc21` [TP-008], 1.1125.
With `Cn1nc(C(F)(F)F)cc1-c1cnc(N2CCc3cc(S(=O)(=O)Nc4c(F)cc(Cl)cc4F)cc(N4CCCC4=O)c32)nc1` [TP-020] the figure was 0.9629; with `Nc1cnc(N2CCc3cc(S(=O)(=O)Nc4c(F)cc(Cl)cc4F)cc(N4CCCC4=O)c32)nc1` [TP-020n], 1.046.
With `Cc1cc(-n2nc(Cc3cc(F)cc(C(F)(F)F)c3)nc2C)ccc1C(N)=O` [TP-024] the figure was 0.8967.
Consider `Cc1nc(Cc2cccc(C(F)(F)F)c2)sc1-c1ccc(C(N)=O)nc1` [TP-024n], for which the “Cell Viability Ratio” value came to 1.0424.
With `CN1C(=O)[C@@H](N2CCc3c(nn(Cc4ccccc4)c3Br)C2=O)COc2ccccc21` [TP-030-2] the figure was 1.065; with `Cc1ccc2[nH]c(CNCCCc3ccncc3)cc(=O)c2c1` [UCSF924NC], 1.116; with `Cc1ccc2nc(CNCCCOc3ccccc3)cc(O)c2c1` [UCSF924], 1.046.
With `CNC(=O)c1ccccc1Nc1cc(Nc2ccc(N3CCOCC3)cc2OC)ncc1C(F)(F)F` [VS-4718] the figure was 0.4552; with `O=C(NNS(=O)(=O)c1ccccc1)c1cc(-c2ccnnc2)ccc1F` [WM-2474], 1.138.
As to `Nc1nc(NCc2ccccc2)nc(-c2cccc(CO)c2)n1` [ZINC32547799], the “Cell Viability Ratio” value came out at 1.205.
